This experiment relates to HEK293 cells. As to the kind of experiment: Viability assay of HEK293 cells (CellTiter-Glo). The experiment is classed as cell-based. Particulars: Homo sapiens, 168 h, 7 days, 3 μM to 0.00015 μM, luminescence. On the procedure: Viability Assay of HEK293 Cells
A viability assay was performed using the CellTiter-Glo™ Luminescent Cell Viability Assay (see Promega Corporation's Technical Publication No. 288, pp. 1-11 [revised 2.04] which is hereby incorporated by reference in its entirety). This assay is a homogeneous method of determining the number of viable cells in culture based on quantitation of the ATP present, which signals the presence of metabolically active cells. The assay is designed for use with multiwell formats, making it ideal for automated high-throughput screening (HTS), cell proliferation and cytotoxicity assays. The homogeneous assay procedure involves adding a single reagent (containing luciferase, luciferan substrate, and buffer) directly to cells cultured in serum-supplemented medium. Cell washing, removal of medium and multiple pipetting steps are not required. The system detects as few as 15 cells/well in a 384-well format in 10 minutes after adding reagent and mixing.
The homogeneous “add-mix-measure” format results in cell lysis and generation of a luminescent signal proportional to the amount of ATP present. The amount of ATP is directly proportional to the number of cells present in culture. The above-referenced assay generates a “glow-type” luminescent signal, produced by the luciferase reaction, which has a half-life generally greater than five hours, depending on cell type and medium used. The extended half-life eliminates the need to use reagent injectors and provides flexibility for continuous or batch mode processing of multiple plates. The unique homogeneous format avoids errors that may be introduced by other ATP measurement methods that require multiple steps.
HEK293 cells (human embryonic kidney cell line transformed by Adenovirus 5 fragments, ATCC-No. CRL 1573) were cultivated in Dulbecco's Modified Eagle Medium (DMEM) (1×) liquid (high glucose) (which includes L-Alanyl-L-Glutamine [a stabilized a form of L-Glutamine], 4500 mg/L glucose, and 110 mg/L sodium pyruvate) from Invitrogen Corporation (Invitrogen Catalog Number 31966-021 [now 10569-010] which is hereby incorporated by reference in its entirety), 5% Fetal Calf Serum (FCS, Sigma Cat-No. F4135 (FBS) which is hereby incorporated by reference in its entirety), and 100 Units/ml penicillin/100 μg/ml streptomycin(=Pen/Strep from Invitrogen Cat. No. 15140 which is hereby incorporated by reference in its entirety). For the assay the cells were seeded in 384 well plates, 5000 cells per well, in the same medium. The next day the test compounds were added in various concentrations ranging from 3 μM to 0.00015 μM (10 concentrations, 1:3 diluted). After 7 days the above viability assay was performed in accordance with the following steps: • Step 1: The cell-plate was equilibrated to room temperature for approximately 30 minutes and than the assay reagent was added. • Step 2: The contents were carefully mixed for 15 minutes to induce cell lysis. • Step 3: After 45 minutes the luminescent signal was measured in Victor 2, (scanning multiwell spectrophotometer, Wallac). Details: 1st Day: • Medium: Dulbecco's Modified Eagle Medium (DMEM) (1×) liquid (high glucose) (which includes L-Alanyl-L-Glutamine [a stabilized a form/source of L-Glutamine], 4500 mg/L glucose, and 110 mg/L sodium pyruvate) from Invitrogen Corporation (Invitrogen Catalog Number 31966-021 [now 10569-010]), 5% Fetal Calf Serum (FCS, Sigma Cat-No. F4135 (FBS)), and Pen/Strep (Invitrogen Cat. No. 15140). • HEK293 (ATCC-No. CRL 1573): 5000 cells in 60 μl per well of 384 well plate. (Greiner 781098, white plates) • Incubate 24 h at 37° C., 5% CO2 2nd Day: Induction (Substance Testing):
In general the dilution steeps are 1:3 a) Add 8 μl of 10 mM stock solution of compound to 72 μl DMSO b) dilute 9×1:3 (always 30 μl to 60 μl DMSO) in this DMSO dilution row (results in 10 wells with concentrations from 1000 μM to 0.06 μM) c) dilute each concentration 1: 4.8 (10 μl compound dilution to 38 μl medium) […]
The molecule `Cc1cc(OCc2nc(C(=O)Nc3cccc(Cl)c3)co2)ccc1CCCCn1ccnn1` [Example 48, 2-[3-Methyl-4-(4-[1,2,3]triazol-1-yl-butyl)-phenoxymethyl]-oxazole-4-carboxylic acid (3-chloro-phenyl)-amide] gave a half-inhibitory concentration (IC50) of 5 to 500 nM.
For the molecule `O=C(Nc1ccc(SC(F)F)cc1)c1coc(COc2ccc(CCCCn3ccnn3)cc2)n1` [Example 8, 2-[4-(4-[1,2,3]Triazol-1-yl-butyl)-phenoxymethyl]-oxazole-4-carboxylic acid (4-difluoromethylsulfanyl-phenyl)-amide], the concentration for half-maximal inhibition (IC50) lay within 5 to 500 nM.
Consider `Cc1cc(OCc2nc(C(=O)Nc3cccc(Cl)c3)cs2)ccc1CCCCn1ccnn1` [Example 51, 2-[3-Methyl-4-(4-[1,2,3]triazol-1-yl-butyl)-phenoxymethyl]-thiazole-4-carboxylic acid (3-chloro-phenyl)-amide], for which the concentration for half-maximal inhibition (IC50) lay in the range of 5 to 500 nM.
Molecule `Cc1ccc(C(=O)Nc2nc(COc3ccc(CCCCn4ccnn4)cc3)cs2)cc1` [Example 52-14, 4-Methyl-N-{4-[4-(4-[1,2,3]triazol-1-yl-butyl)-phenoxymethyl]-thiazol-2-yl}-benzamide] came in with an IC50 of 5 to 500 nM.
With `CN(C(=O)c1coc(COc2ccc(CCCCn3ccnn3)cc2)n1)c1ccccc1` [Example 29, 2-[4-(4-[1,2,3]Triazol-1-yl-butyl)-phenoxymethyl]-oxazole-4-carboxylic acid methyl-phenyl-amide], the IC50 is 500 to 3000 nM.
For `O=C(Nc1nc(COc2ccc(CCCCn3ccnn3)cc2)cs1)c1ccc(F)c(Cl)c1` [Example 52-19, 3-Chloro-4-fluoro-N-{4-[4-(4-[1,2,3]triazol-1-yl-butyl)-phenoxymethyl]-thiazol-2-yl}-benzamide] the value was 5 to 500 nM; for `O=C(Nc1nc(COc2ccc(CCCCn3ccnn3)cc2)cs1)c1ccc([N+](=O)[O-])cc1` [Example 52-1, 4-Nitro-N-{4-[4-(4-[1,2,3]triazol-1-yl-butyl)-phenoxymethyl]-thiazol-2-yl}-benzamide], 5 to 500 nM; for `O=C(Nc1nc(COc2ccc(CCCCn3ccnn3)cc2)cs1)c1ccc(OC(F)F)cc1` [Example 52-22, 4-Difluoromethoxy-N-{4-[4-(4-[1,2,3]triazol-1-yl-butyl)-phenoxymethyl]-thiazol-2-yl}-benzamide], 5 to 500 nM.
For `O=C(Nc1nc(COc2ccc(CCCCn3ccnn3)cc2)cs1)c1cccc(C(F)(F)F)c1` [Example 52-2, N-{4-[4-(4-[1,2,3]Triazol-1-yl-butyl)-phenoxymethyl]-thiazol-2-yl}-3-trifluoromethyl-benzamide] the value was 500 to 3000 nM; for `Cc1cc(OCc2nc(C(=O)Nc3ccc(C(F)(F)F)cc3)co2)ccc1CCCCn1ccnn1` [Example 46, 2-[3-Methyl-4-(4-[1,2,3]triazol-1-yl-butyl)-phenoxymethyl]-oxazole-4-carboxylic acid (4-trifluoromethyl-phenyl)-amide], 5 to 500 nM.
For `O=C(Nc1cc(F)cc(F)c1)c1coc(COc2ccc(CCCCn3ccnn3)cc2)n1` [Example 5, 2-[4-(4-[1,2,3]Triazol-1-yl-butyl)-phenoxymethyl]-oxazole-4-carboxylic acid (3,5-difluoro-phenyl)-amide] the value was 5 to 500 nM; for `O=C(Nc1ccc(F)c([N+](=O)[O-])c1)c1coc(COc2ccc(CCCCn3ccnn3)cc2)n1` [Example 21, 2-[4-(4-[1,2,3]Triazol-1-yl-butyl)-phenoxymethyl]-oxazole-4-carboxylic acid (4-fluoro-3-nitro-phenyl)-amide], 5 to 500 nM; for `O=C(Nc1nc(COc2ccc(CCCCn3ccnn3)cc2)cs1)c1cccc(Cl)c1` [Example 52-12, 3-Chloro-N-{4-[4-(4-[1,2,3]triazol-1-yl-butyl)-phenoxymethyl]-thiazol-2-yl}-benzamide], 5 to 500 nM.
As for `CN(C(=O)c1coc(COc2ccc(CCCCn3ccnn3)cc2)n1)c1ccc(OC(F)(F)F)cc1` [Example 30, 2-[4-(4-[1,2,3]Triazol-1-yl-butyl)-phenoxymethyl]-oxazole-4-carboxylic acid methyl-(4-trifluoromethoxy-phenyl)-amide], the IC50 was in the range of 5 to 500 nM.
In the case of `Cc1cc(C(=O)Nc2nc(COc3ccc(CCCCn4ccnn4)cc3)cs2)ccc1F` [Example 52-26, 4-Fluoro-3-methyl-N-{4-[4-(4-[1,2,3]triazol-1-yl-butyl)-phenoxymethyl]-thiazol-2-yl}-benzamide], the IC50 was 5 to 500 nM.
For `O=C(Nc1ccc(F)c(Cl)c1)c1coc(COc2ccc(CCCCn3ccnn3)cc2)n1` [Example 12, 2-[4-(4-[1,2,3]Triazol-1-yl-butyl)-phenoxymethyl]-oxazole-4-carboxylic acid (3-chloro-4-fluoro-phenyl)-amide] the value was 5 to 500 nM; for `O=C(Nc1ccc(Cl)c(C(F)(F)F)c1)c1coc(COc2ccc(CCCCn3ccnn3)cc2)n1` [Example 27, 2-[4-(4-[1,2,3]Triazol-1-yl-butyl)-phenoxymethyl]-oxazole-4-carboxylic acid (4-chloro-3-trifluoromethyl-phenyl)-amide], 5 to 500 nM; for `O=C(Nc1nc(COc2ccc(CCCCn3ccnn3)cc2)cs1)c1ccccc1Cl` [Example 52-16, 2-Chloro-N-{4-[4-(4-[1,2,3]triazol-1-yl-butyl)-phenoxymethyl]-thiazol-2-yl}-benzamide], 500 to 3000 nM.
Turning to `O=C(Nc1ccc(Cl)cc1)c1csc(COc2ccc(CCCCn3ccnn3)cc2)n1` [Example 42, 2-[4-(4-[1,2,3]Triazol-1-yl-butyl)-phenoxymethyl]-thiazole-4-carboxylic acid (4-chloro-phenyl)-amide], the IC50 was 5 to 500 nM.
For `O=C(Nc1nc(COc2ccc(CCCCn3ccnn3)cc2)cs1)c1ccc(OC(F)(F)F)cc1` [Example 52-4, N-{4-[4-(4-[1,2,3]Triazol-1-yl-butyl)-phenoxymethyl]-thiazol-2-yl}-4-trifluoromethoxy-benzamide] the value was 5 to 500 nM.
For `O=C(Nc1c(Cl)cccc1Cl)c1coc(COc2ccc(CCCCn3ccnn3)cc2)n1` [Example 44, 2-[4-(4-[1,2,3]Triazol-1-yl-butyl)-phenoxymethyl]-oxazole-4-carboxylic acid (2,6-dichloro-phenyl)-amide] the value was 5 to 500 nM; for `O=C(Nc1ccc(C(F)(F)F)cc1[N+](=O)[O-])c1coc(COc2ccc(CCCCn3ccnn3)cc2)n1` [Example 4, 2-[4-(4-[1,2,3]Triazol-1-yl-butyl)-phenoxymethyl]-oxazole-4-carboxylic acid (2-nitro-4-trifluoromethyl-phenyl)-amide], 127 nM; for `O=C(Nc1nc(COc2ccc(CCCCn3ccnn3)cc2)cs1)c1cc(F)ccc1F` [Example 52-15, 2,5-Difluoro-N-{4-[4-(4-[1,2,3]triazol-1-yl-butyl)-phenoxymethyl]-thiazol-2-yl}-benzamide], 5 to 500 nM.
For `O=C(Nc1ccccc1F)c1coc(COc2ccc(CCCCn3ccnn3)cc2)n1` [Example 33, 2-[4-(4-[1,2,3]Triazol-1-yl-butyl)-phenoxymethyl]-oxazole-4-carboxylic acid (2-fluoro-phenyl)-amide] the value was 5 to 500 nM; for `Cc1c(F)cccc1NC(=O)c1coc(COc2ccc(CCCCn3ccnn3)cc2)n1` [Example 20, 2-[4-(4-[1,2,3]Triazol-1-yl-butyl)-phenoxymethyl]-oxazole-4-carboxylic acid (3-fluoro-2-methyl-phenyl)-amide], 500 to 3000 nM.

One may read the IC50 as the concentration needed to halve the response being measured. A high value points to weaker potency in that assay.
